The text below walks through data of ChEMBL document CHEMBL1201862, “PubChem BioAssay data set” (2004).

Experiment [1] has as its target T1, Dual specificity protein phosphatase 6 (Rattus norvegicus, UniProt Q64346).
T1 sequence (Q64346 whole entry): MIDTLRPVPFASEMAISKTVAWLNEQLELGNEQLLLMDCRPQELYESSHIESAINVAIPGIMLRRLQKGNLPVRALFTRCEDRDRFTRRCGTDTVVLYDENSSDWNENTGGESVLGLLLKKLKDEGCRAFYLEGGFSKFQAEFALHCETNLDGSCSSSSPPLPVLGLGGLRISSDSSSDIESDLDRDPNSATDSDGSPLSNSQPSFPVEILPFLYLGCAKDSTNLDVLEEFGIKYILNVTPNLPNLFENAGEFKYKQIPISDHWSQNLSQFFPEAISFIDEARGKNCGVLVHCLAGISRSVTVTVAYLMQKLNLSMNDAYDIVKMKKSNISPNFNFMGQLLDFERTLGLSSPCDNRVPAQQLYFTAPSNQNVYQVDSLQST

Experiment [2] addresses T2, Tyrosine-protein phosphatase non-receptor type 7 (Homo sapiens, UniProt P35236).
T2 sequence (P35236 whole entry): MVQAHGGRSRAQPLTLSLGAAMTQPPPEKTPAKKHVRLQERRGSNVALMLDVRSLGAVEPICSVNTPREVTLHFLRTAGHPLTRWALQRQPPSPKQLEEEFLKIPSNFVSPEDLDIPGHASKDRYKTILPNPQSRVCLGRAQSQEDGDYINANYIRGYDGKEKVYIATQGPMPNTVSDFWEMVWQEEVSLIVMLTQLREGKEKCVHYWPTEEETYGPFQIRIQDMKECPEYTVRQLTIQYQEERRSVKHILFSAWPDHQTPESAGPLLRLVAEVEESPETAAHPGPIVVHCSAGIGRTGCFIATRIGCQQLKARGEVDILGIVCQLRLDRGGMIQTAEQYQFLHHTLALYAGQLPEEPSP
Format: functional.

The target in experiment [3] is T1, Dual specificity protein phosphatase 6. Format: functional.
In experiment [4] the target is Glyceraldehyde-3-phosphate dehydrogenase (Homo sapiens, UniProt P04406).
Experiment [5] concerns HEK293. Kind of experiment: cells. In kind it is functional, cell-based. The settings on record: Homo sapiens.
Experiment [6] addresses Nucleotide-binding oligomerization domain-containing protein 2 (Homo sapiens, UniProt Q9HC29). The experiment is described as follows: inhibition of NOD2-driven NF-kB reporter – cell-based, luminescence, uHTS, HEK293 (AID 1566). Format: functional.
Experiment [7] has as its system HEK293. Kind of experiment: cells. Format: functional, cell-based. To be noted: Homo sapiens. This is another data set of the same source.
A short description of experiment [8]: Shn3 3'UTR reporter signal decrease – cell-based, Clone20 osteoblasts, firefly luciferase, cherry-pick, set 2, Schnurri-3 inhibitor project, dose response (AID 720490).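 Also: actives lower the luminescence signal as inhibitors.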 Format: functional.
Experiment [9] is described as follows: reduction of Shn3 3'UTR-driven luciferase in osteoblasts – cell-based, Clone20 osteoblasts, firefly luciferase, cherry-picked, dose response (AID 624132).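 Also: firefly luciferase luminescence from reporter carrying the Shn3 3'UTR in osteoblasts.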 Format: functional.
Experiment [10] has as its system HEK293. The experiment is described as follows: cells. Format: functional, cell-based. The settings on record: Homo sapiens. This is another data set of the same source.
The target of experiment [11] is T3, COUP transcription factor 2 (Homo sapiens, UniProt P24468).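 Also: HEK293 cells transiently cotransfected with COUP-TFII expression vector and reporter; luciferase reporter luminescence driven by COUP-TFII from the pX2-168 reporter plasmid.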
T3 sequence (P24468 whole entry): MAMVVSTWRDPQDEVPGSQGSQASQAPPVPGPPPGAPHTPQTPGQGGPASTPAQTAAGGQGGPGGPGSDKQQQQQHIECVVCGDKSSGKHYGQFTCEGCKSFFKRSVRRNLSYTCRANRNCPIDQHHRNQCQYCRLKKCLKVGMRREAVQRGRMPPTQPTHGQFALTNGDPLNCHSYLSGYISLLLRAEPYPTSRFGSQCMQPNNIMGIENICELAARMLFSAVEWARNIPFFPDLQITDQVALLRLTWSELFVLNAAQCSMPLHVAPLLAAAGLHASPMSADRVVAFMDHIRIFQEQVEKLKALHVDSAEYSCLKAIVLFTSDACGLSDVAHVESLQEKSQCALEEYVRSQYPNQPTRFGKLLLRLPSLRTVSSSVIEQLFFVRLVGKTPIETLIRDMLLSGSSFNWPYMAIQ
Kind of experiment: Luminescence-based cell-based high throughput dose response assay to identify inhibitors of COUP-TFII (NR2F2). Format: functional.

Experiment [12] in a line: loss of viability in HepG2 cells – cell-based, CellTiter-Glo, cherry-picked, cytotoxicity control for Shn3 inhibitor project, dose response (AID 624134). Format: functional.
The subject of experiment [13] is HEK293. Kind of experiment: NOD2 signaling inhibitors in MDP-stimulated cells, cell-based, uHTS, luminescence (AID 2001). In kind it is functional. The settings on record: Homo sapiens.
In experiment [14] the test system is HEK293. The experiment is described as follows: inhibition of NOD1-driven NF-kB reporter – cell-based, luminescence, uHTS, primary screen (AID 1578). In kind it is functional. The settings on record: Homo sapiens.
The next experiment relates to INS1. Kind of experiment: INS-1E survival protection against cytokine death – cell-based, luminescence, retest, dose response (AID 449756).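 Also: cell death triggered by IL-1 beta plus TNF-alpha plus IFN-gamma mixture; protective hits raise ATP signal compared with cytokine alone wells.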 Format: functional. To be noted: Rattus norvegicus.
The nature of experiment [15]: HIV-1 AD8 envelope cell-cell fusion blockers – cherry-pick, dose response (AID 652062).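 Also: luciferase signal from cell-cell fusion driven by HIV-1 clade B AD8 Env; potency is for inhibitors of fusion seen as a drop in luminescence.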 Format: functional, cell-based.
Experiment [16] in a line: HEK-293T viability loss after treatment – luminescence, T-cell screen hits, cytotoxicity control for TCR NF-kB inhibitor project, dose response (AID 489026).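 Also: cells exposed to compound about 14 hours before the viability readout.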 Format: functional, cell-based.
Experiment [17] can be described thus: blockers of HIV-1 ZM109 envelope-driven cell-cell fusion – HeLa effector, CEM target cells, luciferase, cherry-pick, dose response (AID 652058).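 Also: luciferase signal from HIV-1 Env mediated cell-cell fusion of effector and target cells.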 In kind it is functional, cell-based.
Experiment [18] is described as follows: blockers of HIV-1 envelope-mediated cell-cell fusion – cherry-pick, dose response (AID 652057). In kind it is functional, cell-based.

What is called IC50 is the concentration at which inhibition is half-maximal. A word on the EC50: it is the concentration that produces a half-maximal response. Broadly, the AC50 is the concentration at which the activity in the assay is half-maximal.

The structures appear in SMILES notation. The source made the active and inactive calls. Some results are limits rather than exact numbers.

Chain of Glyceraldehyde-3-phosphate dehydrogenase (P04406 whole entry): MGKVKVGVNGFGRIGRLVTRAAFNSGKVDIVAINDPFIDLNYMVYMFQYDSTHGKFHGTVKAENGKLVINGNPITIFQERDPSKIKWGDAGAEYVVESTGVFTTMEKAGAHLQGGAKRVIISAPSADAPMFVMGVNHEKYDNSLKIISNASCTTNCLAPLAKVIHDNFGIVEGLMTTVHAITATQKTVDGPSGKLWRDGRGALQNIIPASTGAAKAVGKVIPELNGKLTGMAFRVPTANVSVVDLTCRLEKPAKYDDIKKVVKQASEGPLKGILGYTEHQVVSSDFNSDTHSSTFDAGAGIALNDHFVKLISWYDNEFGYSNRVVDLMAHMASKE
Chain of Nucleotide-binding oligomerization domain-containing protein 2 (Q9HC29 whole entry, the tested form may be a part): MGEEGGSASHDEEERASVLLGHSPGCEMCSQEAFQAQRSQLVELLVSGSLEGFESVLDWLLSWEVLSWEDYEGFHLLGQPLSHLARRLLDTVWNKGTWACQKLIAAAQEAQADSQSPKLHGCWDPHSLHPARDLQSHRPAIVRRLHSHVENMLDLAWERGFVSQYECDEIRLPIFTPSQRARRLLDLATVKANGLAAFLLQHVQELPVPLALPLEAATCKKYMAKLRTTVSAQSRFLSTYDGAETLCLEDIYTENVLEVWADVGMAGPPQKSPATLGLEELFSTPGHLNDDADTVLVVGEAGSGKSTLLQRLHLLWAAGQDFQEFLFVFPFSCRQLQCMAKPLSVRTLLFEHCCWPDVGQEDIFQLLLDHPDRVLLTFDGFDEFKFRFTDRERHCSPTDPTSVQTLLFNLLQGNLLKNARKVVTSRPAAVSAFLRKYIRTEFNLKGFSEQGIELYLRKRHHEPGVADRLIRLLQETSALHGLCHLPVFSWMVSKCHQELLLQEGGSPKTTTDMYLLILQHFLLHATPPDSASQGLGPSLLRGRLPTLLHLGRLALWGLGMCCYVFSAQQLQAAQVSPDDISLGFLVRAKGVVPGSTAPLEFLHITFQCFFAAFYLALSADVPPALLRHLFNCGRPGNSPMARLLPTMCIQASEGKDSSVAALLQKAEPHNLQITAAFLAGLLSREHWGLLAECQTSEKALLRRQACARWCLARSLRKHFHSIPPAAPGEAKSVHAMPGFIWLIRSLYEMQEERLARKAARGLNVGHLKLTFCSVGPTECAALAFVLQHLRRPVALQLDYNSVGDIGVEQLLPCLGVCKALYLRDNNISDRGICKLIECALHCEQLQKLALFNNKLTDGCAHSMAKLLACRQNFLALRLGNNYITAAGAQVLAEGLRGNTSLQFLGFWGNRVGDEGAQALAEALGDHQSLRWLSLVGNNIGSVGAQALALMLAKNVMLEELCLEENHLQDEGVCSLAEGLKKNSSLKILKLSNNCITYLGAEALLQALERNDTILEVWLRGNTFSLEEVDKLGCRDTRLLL

In the case of `CCn1c(=O)n(C)c(=O)n([C@@H](Cc2ccccc2)C(N)=O)c1=O`, the IC50 in [1] is > 100 µM (inactive); in experiment [2] it was > 100 µM (not active); in [3], > 100 µM (inactive); in experiment [4] it was > 100 µM (not active).
Take `Cc1cc(S(=O)(=O)NCc2ccncc2)c(C)cc1Br`: the IC50 is > 20 µM (inactive) in the experiment with HEK293 [5]; > 20 µM (inactive) with HEK293 [7]; 9.24 µM (active) in the experiment with HEK293 [10]; 6.41 µM (active) in experiment [11]; 17.9 µM (inactive) with HEK293 [13]. Also, the EC50 is 5.82 µM (active) in experiment [6] and 4.2 µM (active) in the experiment on HEK293 [14]. Besides, the AC50 in [8] was 1.02 µM (active); in experiment [9], 1.23 µM (active); in experiment [12], 41.1 µM (active); with INS1, 4.42 µM (active).
Turning to `CCCn1c(=O)nc(NCc2ccccc2OC)[nH]c1=O`, the IC50 is > 100 µM (inactive) in experiment [1], > 100 µM (not active) in [2], > 100 µM (inactive) in [3] and > 100 µM (not active) in experiment [4].
`Clc1ccc2c(c1)C(C1=NCCN1)c1ccccc1CS2` (stereo not drawn): the AC50 in [15] is 4.39 µM (active); in [17], 2.07 µM (active); in experiment [18], 1.48 µM (active). Besides, the IC50 in [16] is > 80 µM (inactive).
